According to patent publication US12655130B2 (ASSEMBLY BIOSCIENCES, INC., priority 2020, dated 2026):

test system: HBV viral load (viral production from HepAD38 cells); experiment: Activity of test compounds on viral production from HepAD38 cells (viral load by qPCR of HBV core sequence); format: cell-based; conditions: Hepatitis B virus, HePAD38, 120 h, viral load lowering, 5 days, qPCR of supernatant, read-out: VL HepAD38 EC50 range
How it was run: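 HepAD38 cells seeded at 50,000/well in tetracycline-free medium with 2% FBS, treated 5 days at 37 °C with compounds from 10 μM top concentration. Supernatant HBV DNA quantified by TaqMan qPCR of core sequence against HBV DNA standards, relative to DMSO wells; viability by CellTiter-Glo; EC50/CC50 by four-parameter logistic fit.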

`Cn1cc(C2(O)CC3CC(c4ncn(C)c4C(=O)Nc4ccc(F)c(Cl)c4)CC3C2)c(F)n1` (stereo not drawn) [Example 175, N-(3-Chloro-4-fluorophenyl)-4-(5-(3-fluoro-1-methyl-1H-pyrazol-4-yl)-5-hydroxyoctahydropentalen-2-yl)-1-methyl-1H-imidazole-5-carboxamide] and `Cn1cc(C2(O)CC3CC(c4ncn(C)c4C(=O)Nc4ccc(F)c(Cl)c4)CC3C2)c(C(N)=O)n1` (stereo not drawn) [Example 178, 4-(5-(5-((3-Chloro-4-fluorophenyl)carbamoyl)-1-methyl-1H-imidazol-4-yl)-2-hydroxyoctahydropentalen-2-yl)-1-methyl-1H-pyrazole-3-carboxamide] cannot be ordered by EC50: less than 10 nM for the first, less than 10 nM for the second.

`Cn1cnc(C2CC3CC(O)(c4c(F)cnn4C)CC3C2)c1C(=O)Nc1ccc(F)c(Cl)c1` (stereo not drawn) [Example 124, N-(3-chloro-4-fluorophenyl)-4-(5-(4-fluoro-1-methyl-1H-pyrazol-5-yl)-5-hydroxyoctahydropentalen-2-yl)-1-methyl-1H-imidazole-5-carboxamide] and `Cc1cnn(C)c1C1(O)CC2CC(c3ncn(C)c3C(=O)Nc3ccc(F)c(Cl)c3)CC2C1` (stereo not drawn) [Example 131, N-(3-chloro-4-fluorophenyl)-4-(5-(1,4-dimethyl-1H-pyrazol-5-yl)-5-hydroxyoctahydropentalen-2-yl)-1-methyl-1H-imidazole-5-carboxamide] cannot be ordered by EC50: less than 10 nM for the first, less than 10 nM for the second.

First: O=C1CC2CC(c3nc4n(c3C(=O)Nc3ccc(F)c(Cl)c3)CCC4)CC2C1 (stereo not drawn) [Example 31, N-(3-Chloro-4-fluorophenyl)-2-(5-oxooctahydropentalen-2-yl)-6,7-dihydro-5H-pyrrolo[1,2-a]imidazole-3-carboxamide]
Second: O=C(Nc1ccc(F)c(Cl)c1)c1c(C2CC3CC(O)CC3C2)nc2n1CCNC2 (stereo not drawn) [Example 85, N-(3-chloro-4-fluorophenyl)-2-(5-hydroxyoctahydropentalen-2-yl)-5,6,7,8-tetrahydroimidazo[1,2-a]pyrazine-3-carboxamide]
The EC50 of the first is lower: less than 10 nM for the first, 50 to 500 nM for the second. The first is the more potent here.

Compared with `O=C(Nc1ccc(F)c(Cl)c1)c1sc(C(F)(F)F)nc1C1CC2CC(O)CC2C1` (stereo not drawn) [Example 37, N-(3-chloro-4-fluorophenyl)-4-(5-hydroxyoctahydropentalen-2-yl)-2-(trifluoromethyl)thiazole-5-carboxamide], `Cc1nc(C2CC3CC(O)(C(F)(F)F)CC3C2)c(C(=O)Nc2ccc(F)c(Cl)c2)n1C` (stereo not drawn) [Example 26, N-(3-Chloro-4-fluorophenyl)-4-(5-hydroxy-5-(trifluoromethyl)octahydropentalen-2-yl)-1,2-dimethyl-1H-imidazole-5-carboxamide] is lower in EC50: 50 to 500 nM for the first, 10 to 50 nM for the second. The second is the more potent here.

`CCn1cc(C(F)(F)F)c(C2(O)CC3CC(c4ncn(C)c4C(=O)Nc4ccc(F)c(Cl)c4)CC3C2)n1` (stereo not drawn) [Example 159, N-(3-Chloro-4-fluorophenyl)-4-(5-(1-ethyl-4-(trifluoromethyl)-1H-pyrazol-3-yl)-5-hydroxyoctahydropentalen-2-yl)-1-methyl-1H-imidazole-5-carboxamide] and `Cn1cnc(C2CC3CC(O)(c4cc(C(F)(F)F)nn4C)CC3C2)c1C(=O)Nc1ccc(F)c(Cl)c1` (single isomer, unassigned) [Example 72, N-(3-Chloro-4-fluorophenyl)-4-(5-hydroxy-5-(1-methyl-3-(trifluoromethyl)-1H-pyrazol-5-yl)octahydropentalen-2-yl)-1-methyl-1H-imidazole-5-carboxamide] cannot be ordered by EC50: less than 10 nM for the first, less than 10 nM for the second.

`Cn1ccc(C2(O)CC3CC(c4ncn(C)c4C(=O)Nc4ccc(F)c(Cl)c4)CC3C2)n1` (stereo not drawn) [Example 118, N-(3-chloro-4-fluorophenyl)-4-(5-hydroxy-5-(1-methyl-1H-pyrazol-3-yl)octahydropentalen-2-yl)-1-methyl-1H-imidazole-5-carboxamide] and `Cn1cnc(C2CC3CC(O)(c4cc(Cl)nn4C)CC3C2)c1C(=O)Nc1ccc(F)c(Cl)c1` (single isomer, unassigned) [Example 73, 4-(5-(3-Chloro-1-methyl-1H-pyrazol-5-yl)-5-hydroxyoctahydropentalen-2-yl)-N-(3-chloro-4-fluorophenyl)-1-methyl-1H-imidazole-5-carboxamide] cannot be ordered by EC50: less than 10 nM for the first, less than 10 nM for the second.

`Cn1cnc(C2CC3CC(O)(c4c(F)c(OCC(C)(C)O)nn4C)CC3C2)c1C(=O)Nc1ccc(F)c(Cl)c1` (stereo not drawn) [Example 212, N-(3-Chloro-4-fluorophenyl)-4-(5-(4-fluoro-3-(2-hydroxy-2-methylpropoxy)-1-methyl-1H-pyrazol-5-yl)-5-hydroxyoctahydropentalen-2-yl)-1-methyl-1H-imidazole-5-carboxamide] and `COc1cnn(C)c1C1(O)CC2CC(c3ncn(C)c3C(=O)Nc3ccc(F)c(Cl)c3)CC2C1` (stereo not drawn) [Example 134, N-(3-chloro-4-fluorophenyl)-4-(5-hydroxy-5-(4-methoxy-1-methyl-1H-pyrazol-5-yl)octahydropentalen-2-yl)-1-methyl-1H-imidazole-5-carboxamide] cannot be ordered by EC50: less than 10 nM for the first, less than 10 nM for the second.

`Cn1cnc(C2CC3CC(O)(c4cc(C(C)(C)C(F)(F)F)nn4C)CC3C2)c1C(=O)Nc1ccc(F)c(Cl)c1` (stereo not drawn) [Example 105, N-(3-chloro-4-fluorophenyl)-4-(5-hydroxy-5-(1-methyl-3-(1,1,1-trifluoro-2-methylpropan-2-yl)-1H-pyrazol-5-yl)octahydropentalen-2-yl)-1-methyl-1H-imidazole-5-carboxamide] and `COc1cc(C2(O)CC3CC(c4ncn(C)c4C(=O)Nc4ccc(F)c(Cl)c4)CC3C2)n(C)n1` (stereo not drawn) [Example 93, N-(3-chloro-4-fluorophenyl)-4-(5-hydroxy-5-(3-methoxy-1-methyl-1H-pyrazol-5-yl)octahydropentalen-2-yl)-1-methyl-1H-imidazole-5-carboxamide] cannot be ordered by EC50: less than 10 nM for the first, less than 10 nM for the second.

First: CC(N)c1cc(C2(O)CC3CC(c4ncn(C)c4C(=O)Nc4ccc(F)c(Cl)c4)CC3C2)n(C)n1 (stereo not drawn) [Example 112, 4-(5-(3-(1-Aminoethyl)-1-methyl-1H-pyrazol-5-yl)-5-hydroxyoctahydropentalen-2-yl)-N-(3-chloro-4-fluorophenyl)-1-methyl-1H-imidazole-5-carboxamide]
Second: CC(C)n1nc(N)cc1C1(O)CC2CC(c3ncn(C)c3C(=O)Nc3ccc(F)c(Cl)c3)CC2C1 (stereo not drawn) [Example 77, 4-(5-(3-Amino-1-Isopropyl-1H-pyrazol-5-yl)-5-hydroxyoctahydropentalen-2-yl)-N-(3-chloro-4-fluorophenyl)-1-methyl-1H-imidazole-5-carboxamide]
The EC50 of the first is higher: 10 to 50 nM for the first, less than 10 nM for the second. The second is the more potent here.

First: Cn1nc(C(F)(F)F)cc1C1(O)CC2CC(c3nc(Cl)n(C)c3C(=O)Nc3ccc(F)c(Cl)c3)CC2C1 (stereo not drawn) [Example 111, 2-Chloro-N-(3-chloro-4-fluorophenyl)-4-(5-hydroxy-5-(1-methyl-3-(trifluoromethyl)-1H-pyrazol-5-yl)octahydropentalen-2-yl)-1-methyl-1H-imidazole-5-carboxamide]
Second: CCCCC1(O)CC2CC(c3nc(Cl)n(C)c3C(=O)Nc3ccc(F)c(Cl)c3)CC2C1 (stereo not drawn) [Example 113, 4-(5-Butyl-5-hydroxyoctahydropentalen-2-yl)-2-chloro-N-(3-chloro-4-fluorophenyl)-1-methyl-1H-imidazole-5-carboxamide]
The EC50 of the first is higher: 10 to 50 nM for the first, less than 10 nM for the second. The second is the more potent here.

`CC(C)n1nc(N)c(Cl)c1C1(O)CC2CC(c3ncn(C)c3C(=O)Nc3ccc(F)c(Cl)c3)CC2C1` (stereo not drawn) [Example 102, 4-(5-(3-amino-4-chloro-1-isopropyl-1H-pyrazol-5-yl)-5-hydroxyoctahydropentalen-2-yl)-N-(3-chloro-4-fluorophenyl)-1-methyl-1H-imidazole-5-carboxamide] and `Cn1cnc(C2CC3CC(O)(c4cc(C(O)C(F)(F)F)nn4C)CC3C2)c1C(=O)Nc1ccc(F)c(C#N)c1` (stereo not drawn) [Example 107, N-(3-Cyano-4-fluorophenyl)-4-(5-hydroxy-5-(1-methyl-3-(2,2,2-trifluoro-1-hydroxyethyl)-1H-pyrazol-5-yl)octahydropentalen-2-yl)-1-methyl-1H-imidazole-5-carboxamide] cannot be ordered by EC50: less than 10 nM for the first, less than 10 nM for the second.

Compound `Cn1cnc(C2CC3CC(O)(c4c[nH]nc4C(F)(F)F)CC3C2)c1C(=O)Nc1ccc(F)c(C#N)c1` (stereo not drawn) [Example 193, N-(3-Cyano-4-fluorophenyl)-4-(5-hydroxy-5-(3-(trifluoromethyl)-1H-pyrazol-4-yl)octahydropentalen-2-yl)-1-methyl-1H-imidazole-5-carboxamide] has an EC50 of less than 10 nM.

same assay, conditions: viral load lowering, 5 days, qPCR of supernatant, read-out: VL HepAD38 EC50 range

First: Cn1cnc(C2CC3CC(O)(CO)CC3C2)c1C(=O)Nc1ccc(F)c(Cl)c1 (single isomer, unassigned) [Example 20, N-(3-Chloro-4-fluorophenyl)-4-(5-hydroxy-5-(hydroxymethyl)octahydro-pentalen-2-yl)-1-methyl-1H-imidazole-5-carboxamide]
Second: CC(CO)Oc1cc(C2(O)CC3CC(c4ncn(C)c4C(=O)Nc4ccc(F)c(Cl)c4)CC3C2)n(C)n1 (single isomer, unassigned) [Example 69, N-(3-Chloro-4-fluorophenyl)-4-(5-hydroxy-5-(3-((1-hydroxypropan-2-yl)oxy)-1-methyl-1H-pyrazol-5-yl)octahydropentalen-2-yl)-1-methyl-1H-imidazole-5-carboxamide]
The EC50 of the first is lower: less than 10 nM for the first, 10 to 50 nM for the second. The first is the more potent here.

`O=C(Nc1ccc(F)c(Cl)c1)c1c(C2CC3CC(O)CC3C2)nc2n1CCC2` (single isomer, unassigned) [Example 33, N-(3-Chloro-4-fluorophenyl)-2-(5-hydroxyoctahydropentalen-2-yl)-6,7-dihydro-5H-pyrrolo[1,2-a]imidazole-3-carboxamide] and `CC(O)COc1cc(C2(O)CC3CC(c4ncn(C)c4C(=O)Nc4ccc(F)c(Cl)c4)CC3C2)n(C)n1` (single isomer, unassigned) [Example 210, N-(3-Chloro-4-fluorophenyl)-4-(5-hydroxy-5-(3-(2-hydroxypropoxy)-1-methyl-1H-pyrazol-5-yl)octahydropentalen-2-yl)-1-methyl-1H-imidazole-5-carboxamide] cannot be ordered by EC50: less than 10 nM for the first, less than 10 nM for the second.
